Patent US7737182B2, “Pharmaceuticals for xerosis” (Taisho Pharmaceutical Co., Ltd., priority 2001, dated 2010)

How the values were obtained:
human platelets = assay: Suppression of ADP-induced aggregation of human platelets; format: cell-based; settings: human platelet-rich plasma, ADP (3 μM), Born method
Procedure: (A) Using the active ingredient of the present invention (compound No. 7) and PGD2 as a control for comparison, prostaglandin D receptor binding selectivity was determined with reference to the platelet aggregation suppressing action as the prostaglandin D receptor agonist action. 1. Human Platelet Aggregation Suppressing Action Suppression of ADP-Induced Aggregation of Human Platelets
The test was performed on purchased platelet-rich plasma (PRP) (6×10^8 platelets/mL) and platelet aggregation was measured based on the Born method (Nature, vol. 194, p. 927, 1962). To 100 μL of PRP, 5 μL of a 1 nM-3 μM test drug solution in ethanol was added and the mixture was incubated at 37° C. for 1 minute with stirring at 1000 rpm. To the resulting mixture, 5 μL of an aggregation inducer [ADP (3 μM)] was added to induce platelet aggregation and a maximum percent aggregation (a maximum change in light transmittance that occurred within 5 minutes after the induction of platelet aggregation) was determined by an aggregometer. The percent suppression of aggregation by each test drug was calculated from the maximum percent aggregation by the test drug as relative to the maximum percent aggregation by ethanol instead of the test drug solution and IC50 values were determined from the constructed dose-response curve.

[1] = system: NC mice induced to manifest dermatitis; assay: Dermatitis score in dermatitis manifesting NC mouse models (Test Example 2); format: in vivo; settings: 0.01% in 100% ethanol, 200 μl on dorsal back, seven times a week for 4 weeks
Procedure: By suitably modifying a method known to the skilled artisan (Jpn. J. Pharmacol. 76, 175-183 (1998) Jun Hiroi, et al. Effects of Tacrolimus Hydrate (FK-506) Ointment on Spontaneous Dermatitis in NC/Nga Mice), the following test was conducted in order to confirm the antipruritic effect of compounds of the invention.
Animals: Four-week old SPF NC mice (male) were purchased from Japan SLC; right after their arrival, the SPF NC mice were kept together with dermatitis manifesting male NC mice (older than 20 weeks) for 2 weeks under the following conditions so as to induce itch-evoked scratching behavior. […]
Drug administration: To the dorsal backs of the 20-wk NC mice that were induced to manifest dermatitis as the result of cohabitation with the spontaneous dermatitis manifesting NC mice, 100% ethanol, compound No. 7 (0.01%) dissolved in 100% ethanol or tacrolimus (0.1%) dissolved in 100% ethanol was applied from an Eppendorf pipette in 200-μl doses seven times a week for a period of 4 weeks. […] Dermatitis score: Dermatitic symptoms were observed and measured once a week. […]

BALB/c male mice [2] = assay: Mouse skin's barrier function, preventive test, TEWL (Test Example 6); format: in vivo; settings: cohabitation with dermatitic NC/Nga mice; 0.01% in ethanol, 100 μL, once a day for 7 days
Procedure: Six-week-old BALB/c male mice in groups of six were shaven in a rostral dorsolateral area of 4 cm^2 (2 cm×2 cm) with electric clippers and kept in the same cage as NC/Nga mice that had developed dermatitis. From the day next to the start of cohabitation, a solvent (ethanol, 100 μL) or a drug dissolved in the solvent (compound No. 7, PGD2, PGF2α, or PGE1, all being at 0.01% in an amount of 100 μL) was applied to the shaven site for 7 days on once-a-day basis.
On the day next to the seventh application of the solvent or drug, the transepidermal water loss (TEWL) at the same site was measured with Tewameter (TM210 of Courage & Khazawa, Germany) to evaluate the drug's action, with the solvent-applied group being used as the control group.

BALB/c male mice [3] = assay: Mouse skin's barrier function, treatment test, TEWL (Test Example 5); format: in vivo; settings: barrier destroyed with acetone/diethyl ether; 0.01% in ethanol, 100 μL, once a day for 2 days
Procedure: Six-week-old BALB/c male mice in groups of eight were shaven in a rostral dorsolateral area of 4 cm^2 (2 cm×2 cm) with electric clippers and the shaven area was covered for 60 seconds with an absorbent cotton (2 cm×2 cm) impregnated with a 1:1 liquid mixture of acetone and diethyl ether. This treatment for destroying the skin's barrier function was performed for 3 consecutive days on once-a-day basis. Starting on the day next to completion of the treatment for barrier destruction at day 3, a solvent (ethanol, 100 μL) or a drug dissolved in the solvent (compound No. 7, PGD2, PGF2α, or PGE1, all being at 0.01% in an amount of 100 μL) was applied to the barrier destroyed site for 2 days on once-a-day basis. On the day next to the second application of the solvent or drug, the transepidermal water loss (TEWL) at the same site was measured with Tewameter (TM210 of Courage & Khazawa, Germany) to evaluate the drug's action.

[4] = system: Fifty-week-old BALB/c male mice; assay: Aged mouse skin's barrier function, treatment test, TEWL (Test Example 7); format: in vivo; settings: 50-week-old mice; 0.0001% in ethanol, 200 μL, once a day for 3 days
Procedure: Fifty-week-old BALB/c male mice (eight in each group) were shaven in a rostral dorsolateral area of 4 cm^2 (2 cm×2 cm) with electric clippers. Starting on the next day, a solvent (ethanol, 200 μL) or a drug dissolved in the solvent (compound No. 7 or PGD2, each being at 0.0001% in an amount of 200 μL) was applied to the shaven site for 3 days on once-a-day basis.
On the day next to the third application of the solvent or drug, TEWL at the same site was measured with Tewameter (TM210 of Courage & Khazawa, Germany) to evaluate the drug's action.

In the case of `O=C(O)CSCCCC[C@@H]1[C@@H](C#C[C@@H](O)C2CCCCC2)[C@H](O)C[C@H]1Cl` [Compound No. 7], the IC50 (human platelets) is reported as 4.27 nM, the “dermatitis score suppressing action compared to the vehicle group” value [1] is reported as “significant dermatitis score suppressing action” and the “transepidermal water loss (TEWL) compared to the control group” value (BALB/c male mice [2]) is reported as “significant decrease in TEWL”. For the same molecule, the “transepidermal water loss (TEWL) compared to the solvent-applied control group” value (BALB/c male mice [3]) was “significant decrease in TEWL” and the “transepidermal water loss (TEWL) compared to the control group” value [4] was “significant decrease in TEWL”.
